Where two headings read alike, the source gives them in different places.
Legend:
Assay in all cases: microbe, parasite or virus in culture
Type in all cases: cell-based, human immunodeficiency virus type 1 (HIV-1)
[1] = system: wild type HIV-1
[2] = system: HIV-1 K103N mutant; conditions: Human immunodeficiency virus 1, HeLa, read-out: EC50 mutant K103N
[3] = system: HIV-1 K103N-L100I mutant
[4] = system: HIV-1 K103N-Y181C mutant; conditions: Human immunodeficiency virus 1, HeLa, read-out: EC50 mutant K103N-Y181C
[5] = system: HIV-1 Y188L mutant; conditions: Human immunodeficiency virus 1, HeLa, read-out: EC50 mutant Y188L
[6] = Human immunodeficiency virus 1, Hela-JC53
[7] = Human immunodeficiency virus 1, HeLa, read-out: EC50 mutant K103N-L100I, mutant K103N-L100I

Row | Compound | EC50 [1, 6] [nM] | EC50 [2] [nM] | EC50 [3, 7] [nM] | EC50 [4] [nM] | EC50 [5] [nM] | EC50 [1] [nM] | EC50 ([3]; read-out: EC50 mutant K103N-L100I, mutant K103N-L100I) [nM]
1 | Cc1cc(-c2ccc(C(N)=O)cn2)cc(C)c1Oc1nc(Nc2ccc(C#N)cc2)nc2ccn(C)c12 [Example 61, 6-(4-(2-(4-Cyanophenylamino)-5-methyl-5H-pyrrolo[3,2-d]pyrimidin-4-yloxy)-3,5-dimethyl-phenyl)nicotinamide] | 1 to 10 | 1 to 10 | 1 to 10 | > 10 | 1 to 10 | – | –
2 | Cc1cc(-c2ccc(C(N)=O)cn2)cc(C)c1Oc1nc(Nc2ccc(C#N)cc2)nc2ncn(C)c12 [Example 123, 6-(4-(2-(4-cyanophenylamino)-7-methyl-7H-purin-6-yloxy)-3,5-dimethylphenyl)nicotinamide] | 1 to 10 | 1 to 10 | > 10 | > 10 | 1 to 10 | – | –
3 | Cc1cc(-c2ccncc2C#N)cc(C)c1Oc1nc(Nc2ccc(C#N)cc2)nc2ccn(C)c12 [Example 5, 4-(4-(2-(4-Cyanophenylamino)-5-methyl-5H-pyrrolo[3,2-d]pyrimidin-4-yloxy)-3,5-dimethylphenyl)nicotinonitrile] | – | < 1 | – | 1 to 10 | > 10 | < 1 | < 1
4 | Cc1cc(-c2cccc(C#N)c2)cc(C)c1Oc1nc(Nc2ccc(C#N)cc2)nc2ccn(C)c12 [Example 16, 4′-(2-(4-Cyanophenylamino)-5-methyl-5H-pyrrolo[3,2-d]pyrimidin-4-yloxy)-3′,5′-dimethylbiphenyl-3-carbonitrile] | 1 to 10 | > 10 | > 10 | > 10 | > 10 | – | –
5 | Cc1cc(-c2ccc(C(N)=O)cc2)cc(C)c1Oc1nc(Nc2ccc(C#N)cc2)nc2ncn(C)c12 [Example 111, 4′-(2-(4-Cyanophenylamino)-7-methyl-7H-purin-6-yloxy)-3′,5′-dimethylbiphenyl-4-carboxamide] | 1 to 10 | 1 to 10 | 1 to 10 | > 10 | > 10 | – | –
6 | Cc1cnccc1-c1cc(C)c(Oc2nc(Nc3ccc(C#N)cc3)nc3ccn(C)c23)c(C)c1 [Example 7, 4-(4-(2,6-Dimethyl-4-(3-methylpyridin-4-yl)phenoxy)-5-methyl-5H-pyrrolo [3,2-d]pyrmidin-2-ylamino)benzonitrile] | 1 to 10 | 1 to 10 | 1 to 10 | 1 to 10 | > 10 | – | –
7 | Cc1cc(-c2ccncc2)cc(C)c1Oc1nc(Nc2ccc(C#N)cc2)nc2nc[nH]c12 [Example 29, 4-(6-(2,6-Dimethyl-4-(pyridin-4-yl)phenoxy)-7H-purin-2-ylamino)benzonitrile] | < 1 | < 1 | 1 to 10 | 1 to 10 | 1 to 10 | – | –
8 | Cc1cc(-c2ccnc(F)c2)cc(C)c1Oc1nc(Nc2ccc(C#N)cc2)nc2ccn(C)c12 [Example 3, 4-(4-(4-(2-Fluoropyridin-4-yl)-2,6-dimethylphenoxy)-5-methyl-5H-pyrrolo[3,2-d]pyrimidin-2-ylamino) benzonitrile] | 1 to 10 | 1 to 10 | 1 to 10 | > 10 | > 10 | – | –
9 | Cc1cc(-c2ccc(S(N)(=O)=O)cc2)cc(C)c1Oc1nc(Nc2ccc(C#N)cc2)nc2nc[nH]c12 [Example 46, 4′-(2-(4-Cyanophenylamino)-7H-purin-6-yloxy)-3′,5′-dimethylbiphenyl-4-sulfonamide] | 1 to 10 | 1 to 10 | > 10 | 1 to 10 | > 10 | – | –
10 | Cc1cc(-c2ccncc2F)cc(C)c1Oc1nc(Nc2ccc(C#N)cc2)nc2ccn(C)c12 [Example 2, 4-(4-(4-(3-Fluoropyridin-4-yl)-2,6-dimethylphenoxy)-5-methyl-5H-pyrrolo[3,2-d]pyrimidin-2-ylamino) benzonitrile] | 1 to 10 | 1 to 10 | 1 to 10 | 1 to 10 | > 10 | – | –
11 | Cc1cc(-c2cn[nH]c2)cc(C)c1Oc1nc(Nc2ccc(C#N)cc2)nc2ccn(C)c12 [Example 24, 4-(4-(2,6-Dimethyl-4-(1H-pyrazol-4-yl)phenoxy)-5-methyl-5H-pyrrolo[3,2-d]pyrimidin-2-ylamino)-benzonitrile] | < 1 | 1 to 10 | 1 to 10 | > 10 | 1 to 10 | – | –
12 | Cc1cc(-c2cccc(C#N)n2)cc(C)c1Oc1nc(Nc2ccc(C#N)cc2)nc2ccn(C)c12 [Example 17, 6-(4-(2-(4-Cyanophenylamino)-5-methyl-5H-pyrrolo[3,2-d]pyrimidin-4-yloxy)-3,5-dimethylphenyl)picolinonitrile] | 1 to 10 | 1 to 10 | 1 to 10 | > 10 | > 10 | – | –
13 | Cc1cc(-c2ccc(C(N)=O)cc2F)cc(C)c1Oc1nc(Nc2ccc(C#N)cc2)nc2ccn(C)c12 [Example 50, 4′-(2-(4-Cyanophenylamino)-5-methyl-5H-pyrrolo[3,2-d]pyrimidin-4-yloxy)-2-fluoro-3′,5′-dimethylbiphenyl-4-carboxamide] | 1 to 10 | 1 to 10 | 1 to 10 | 1 to 10 | > 10 | – | –
14 | Cc1cc(-c2ccc(C(N)=O)cc2)cc(C)c1Oc1nc(Nc2ccc(C#N)cc2)nc2nc[nH]c12 [Example 45, 4′-(2-(4-Cyanophenylamino)-7H-purin-6-yloxy)-3′,5′-dimethylbiphenyl-4-carboxamide] | < 1 | 1 to 10 | 1 to 10 | 1 to 10 | 1 to 10 | – | –
15 | Cc1cc(-c2ccncc2)cc(C)c1Oc1nc(Nc2ccc(C#N)cc2)nc2ccn(C)c12 [Example 1, 4-(4-(2,6-Dimethyl-4-(pyridin-4-yl)phenoxy)-5-methyl-5H-pyrrolo[3,2-d]pyrimidin-2-ylamino)benzonitrile] | 1 to 10 | < 1 | 1 to 10 | 1 to 10 | 1 to 10 | – | –
16 | Cc1cc(-c2cc(C)c(Oc3nc(Nc4ccc(C#N)cc4)nc4ccn(C)c34)c(C)c2)ccn1 [Example 8, 4-(4-(2,6-Dimethyl-4-(2-methylpyridin-4-yl)phenoxy)-5-methyl-5H-pyrrolo[3,2-d]pyrimidin-2-ylamino) benzonitrile] | 1 to 10 | > 10 | > 10 | > 10 | > 10 | – | –
17 | Cc1cc(-c2ccc(S(N)(=O)=O)cc2)cc(C)c1Oc1nc(Nc2ccc(C#N)cc2)nc2ncn(C)c12 [Example 53, 4′-(2-(4-Cyanophenylamino)-7-methyl-7H-purin-6-yloxy)-3′,5′-dimethylbiphenyl-4-sulfonamide] | 1 to 10 | 1 to 10 | 1 to 10 | 1 to 10 | > 10 | – | –
18 | Cc1cc(-c2ccc(C(N)=O)cc2)cc(C)c1Oc1nc(Nc2ccc(C#N)cc2)nc2ccn(C)c12 [Example 78, 4′-(2-(4-cyanophenylamino)-5-methyl-5H-pyrrolo[3,2-d]pyrimidin-4-yloxy)-3′,5′-dimethylbiphenyl-4-carboxamide] | 1 to 10 | 1 to 10 | 1 to 10 | 1 to 10 | 1 to 10 | – | –
19 | Cc1cc(-c2ccnc(C#N)c2)cc(C)c1Oc1nc(Nc2ccc(C#N)cc2)nc2ccn(C)c12 [Example 6, 4-(4-(2-(4-Cyanophenylamino)-5-methyl-5H-pyrrolo[3,2-d]pyrimidin-4-yloxy)-3,5-dimethylphenyl)picolinonitrile] | 1 to 10 | 1 to 10 | 1 to 10 | > 10 | > 10 | – | –

From patent US8207178B2 (priority 2007, dated 2012)
